Read-outs that look alike come from different tables or passages of the source. Where no end group is shown, it is not given here.
How the values were obtained:
[1] = test system: CY7467 yeast growth (HIS3 gene product); assay: Elimination of LIRMA growth, strain CY7467 (thrombin receptor); format: cell-based, S. cerevisiae; conditions: CY7467, selective media
Procedure: (§1) It was determined that the yeast growth on selective media that resulted from LIRMA was eliminated by the addition of 2.5 millimolar concentrations of 3-aminotriazole (AT). AT is an inhibitor of the HIS3 gene product that serves to reduce background growth. Therefore, selection protocols aimed at the identification of novel peptide ligands for the human thrombin receptor were carried out at this concentration of AT.

[2] = test system: CY6571 yeast growth (HIS3 gene product); assay: Elimination of LIRMA growth, strain CY6571 (FPRL-1); format: cell-based, S. cerevisiae; conditions: CY6571, selective media
Procedure: as §1, with “additional” for “addition”, “surrogate” for “novel peptide”, “FPRL-1” for “human thrombin”

[3] = test system: human orphan receptor FPRL-1; assay: Growth on -Leu-Ura-His + 2.5 mM AT, yeast expressing FPRL-1; format: cell-based; conditions: yeast bearing FPRL-1-encoding plasmid (CY6571), plasmids A1 and A3-A10
Excerpt: The yeast strain CY1141 (MATalpha far1*1441 tbt1-1 fus1-HIS3 can 1 ste14::trp1:;LYS2 ste3*1156 gpa1(41)-Galphai2 lys2 ura3 leu2 trp1 his3) was used in the experiments that follow. CY1141 contains a pheromone inducible HIS3 gene, fus1-HIS3 integrated at the FUS1 locus and a hybrid gene encoding the first 41 amino acids of GPA1 (yeast G alpha) fused to sequence encoding human G alphai2 (lacking codons encoding the N-terminal 33 amino acids) replacing GPA1 at its chromosomal locus. The yeast STE14 gene is disrupted to lower the basal level of signaling through the pheromone response pathway. The yeast a-factor receptor gene, STE3, is deleted. CY1141 was transformed with Cadus 2311 to yield CY6571, a strain expressing the human orphan receptor, FPRL-1.
It was determined that the yeast growth on selective media that resulted from LIRMA was eliminated by the additional of 2.5 millimolar concentrations of 3-aminotriazole (AT). AT is an inhibitor of the HIS3 gene product that serves to reduce background growth. […]
CY6571 was inoculated to 10 mls of standard synthetic media (SD) lacking leucine (-Leu) and incubated overnight at 30° C. […] The OD600 of each cell suspension was determined and crude plasmid isolations were done on 8-16 OD units of cells for each pool. […]

[4] = biological target: T1, FPRL-1 receptor (Homo sapiens, UniProt P25090)
T1 sequence (P25090 1-351): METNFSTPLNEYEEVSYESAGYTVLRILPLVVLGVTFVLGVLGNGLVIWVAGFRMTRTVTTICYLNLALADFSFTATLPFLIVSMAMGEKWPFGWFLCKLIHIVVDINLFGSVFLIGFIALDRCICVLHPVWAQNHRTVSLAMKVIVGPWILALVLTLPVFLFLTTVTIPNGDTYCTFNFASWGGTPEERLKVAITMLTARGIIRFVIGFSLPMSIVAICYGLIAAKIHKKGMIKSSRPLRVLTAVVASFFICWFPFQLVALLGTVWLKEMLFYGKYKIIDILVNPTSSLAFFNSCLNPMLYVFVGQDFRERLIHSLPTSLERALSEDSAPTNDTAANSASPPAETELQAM
Procedure: For verificatiin of pheromone pathway activation and quantification of the stimulation, the activity of the fus1 promoter was determined colorimetrically using a fus1-lacZ fusion in a parallel set of test strains. CY1141, described above, was used as the recipient strain for these experiments. […] Four strains (bearing the identical plasmids) were grown overnight in minimal media lacking leucine, uracil, and tryptophan, pH8.6. The overnight cultures were used to inoculate -Leu -Ura -Trp pH6.8 media and these new cultures were grown for approximately 4.5-5 hours to an OD600 of less than 0.4.

[5] = test system: human thrombin receptor; assay: Growth on -Leu-Ura-His + 2.5 mM AT, yeast expressing thrombin receptor; format: cell-based; conditions: yeast bearing thrombin receptor plasmid (CY7467)
Excerpt: The amplified product was purified by gel electrophoresis, restricted with NcoI and BamHI and ligated to NcoI and BamHI-cut CADUS 1871, a PGK promoter-driven expression vector, to yield CADUS 2260. Cloning into CADUS 1871 introduces a novel stop codon preceded by the triplet GlySerVal after the authentic carboxy terminal codon of the human thrombin receptor (threonine). In addition, an invertase signal sequence is fused to the authentic amino terminus of the receptor.
The yeast strain CY1141 (MATalpha far1*1442 tbt1-1 fus1-HIS3 can1 ste14::trp1::LYS2 ste3* 1156 gpal(41)-Galphai2 lys2 ura3 leu2 trp1 his3) was transformed with CADUS 2260 to yield strain CY7467, expressing the human thrombin receptor. CY7467 was inoculated to 10 mls of standard synthetic media (SD) lacking leucine (-Leu) and incubated overnight at 30 C. […] The OD600 of each cell suspension was determined and crude plasmid isolations were done on 8-16 OD units of cells for each pool. […]
Strain CY7467 was transformed with […] of each plasmid pool by electroporation. […] The cells from each of these plates were scraped into 5 mls of H2 O, the OD600 of the cell suspensions were determined and crude plasmid isolations were done on 8-16 OD units of yeast cells. […]

Nc1nc[nH]n1 [3-aminotriazole]
concentration at which LIRMA growth was eliminated [1]: 2.5 millimolar
concentration at which LIRMA growth was eliminated [2]: 2.5 millimolar

SLLWLTCRPWEAM [peptide A1]
growth advantage on media lacking histidine [3]: conferred a growth advantage
β-galactosidase activity ([4]; R+ L+ (CY1141/CADUS 2311/peptide A1/CADUS 1584)): 28 units
β-galactosidase activity ([4]; R- L+ (CY1141/CADUS 1289/peptide A1/CADUS 1584)): 3.5 units
stimulation over background levels of β-galactosidase ([4]; yeast cy1141): 8 fold

VCPARYVLPGPVL [SEQ ID NO:45, peptide from random library, conferring growth via human thrombin receptor]
growth advantage on media lacking histidine [5]: conferred a growth advantage

Reference: patent US6159705A, “Recombinant yeast cells for identifying receptor effectors” (Cadus Pharmaceutical Corporation, priority 1997, dated 2000)
